Eight compounds from patent US20030186943A1, “Substituted gamma-phenyl-delta-lactams and uses related thereto” (Inflazyme Pharmaceuticals Ltd., priority 1998, published 2003) can be followed below.

As a reminder, the IC50 is the concentration that inhibits the measured activity by half.

SMILES strings stand for the structures. Like-named read-outs stand apart in the source and are kept apart here.

The test system of experiment [1] is High Affinity Rolipram Binding Site of PDE4 in Mouse Brain. The experiment can be described thus: Displacement of [3H]-rolipram from its high affinity binding site (HARBS). As to conditions: for PDE4:HARBS: ratio of IC50 for PDE4 catalytic activity to concentration displacing 50% of rolipram from HARBS. Background: Displacement assays read how much labelled ligand stays bound in the presence of the test substance.

Experiment [2] has as its system IL-10 production in concanavalin A stimulated primary human CD4+ T-cells. The experiment can be described thus: IL-10 production (Th2 profile) in concanavalin A stimulated primary human CD4+ T-cells. The experiment is classed as cell-based. To be noted: T-cell, 10 μg/mL Concanavalin A, 48 hours, X marks this range. The source says:
(§1) The assay on the primary human T-cells involves their activation by concanavalin A (conA); (Sigma, Catalogue No. C 5275), followed by ELISA detection for cytokines for either profile. In the case of Th1-profiles, IL-2 and INF-γ are used as benchmarks while IL-10 is the indicator for a Th2-profile. Biologically, these indicators are useful in that IL-2 is the major T-cell mitogen while IL-10 represents a powerful yet selective immunosuppressive agent.
(§2) Approximately 60 cc of whole human blood was collected into ACD anti-coagulant vacutainer tubes. 15 mL Ficoll Paque 1077 was aliquoted into 6 sterile 50 mL conical tubes. 10 mL of blood was slowly layered on top of the Ficoll Paque by holding the tube upright and resting the pipette tip at the inside edge of the tube and allowing the blood to slowly run down the side of the tube. Tubes were spun at 1700 rpm for 30 minutes at room temperature. The plasma layer above the leukocyte band was aspirated off and a pasteur pipette was used to lift off the leukocyte band and transfer it to a sterile 50 mL conical tube. Cells from each leukocyte gradiant tube were transferred to a separate 50 mL conical tube. Sterile PBS pH 7.4 was added to each 50 mL conical tube containing cells from leukocyte band to a volume of 50 mL. Tubes were spun at 1100 rpm for 10 minutes. Supernatant was aspirated off and the cells were resuspended in 50 mL PBS pH 7.4. Tubes were re-centrifuged at 1100 rpm for 10 minutes. Supernatant was aspirated off and the cells were resuspended in appropriate medium at a density of 5×10^7 cells/mL or 2×10^6 cells/mL.
(§3) CD 4+T-cell Preparation: Cells from Leukocyte preparation were resuspended in sterile PBS pH 7.4 supplemented with 2-6% Fetal Bovine Serum (FBS) at a density of 5×10^7 cells/mL. Cells were then ready for isolation.
(§4) 100 μL of antibody cocktail (Stem Cell Technologies, Catalogue No. 14062) was added for each mL of cells and mixed well. Cells+Ab cocktail was incubated on ice for 30 minutes. After 30 minute incubation, 60 μL of magnetic colloid was added for each mL of cells, and mixed well. Cells+Ab cocktail+magnetic colloid were incubated on ice for 30 minutes. After a final 30 minute incubation cells were ready for magnetic cell separation.
(§5) Sample was loaded into the top of a column. The stopcock was turned to allow the flow of media down through the column, and the media was collected into a collection tube. PBS supplemented with 2-6% FBS was added to the column until three column volumes had been collected (not including the volume of the start sample). Cells were washed, counted, and resuspended in RPMI 1640 with 10% FBS+2 mM L-glutamine at a density of 1×10^6 cells/mL.
(§6) CD4+ T-cells were isolated as described above. Cells were suspended in RPMI 1640 media (Stem Cell Technologies Inc.; Catalogue No. 36750) with 10% FBS+2 mM L-glutamine at a density of 1×10^6 cells/mL. Cells were maintained on ice as test compounds were prepared. Test compounds were prepared in a sterile 96-well assay plate at 50×the final desired test concentration, all wells contained an equal amount of dimethylsulfoxide vehicle. 500 μL of CD4^+ T-cells were added to each well of 24-well assay plate. 10 μL of each test compound working solution was added to the appropriate wells; two wells were left as stimulated and non-stimulated controls. 10 μL of concanavalin A (50×the final concentration) at 10 μg/mL was added to each well with the exception of the non-stimulated control wells. Cells were incubated at 37° C. for 48 hours. Conditioned media is then assessed by ELISA for the quantity of IL-2, […], TNFα and IL-10 present.
(§7) Tables 5A, 5B and 5C represent a synopsis of data across individuals with respects to the potency of compounds of the invention in their ability to inhibit cytokines that are likely to promote or depress a Th1 or Th2 response. […]

In experiment [3] the test system is primary human neutrophils. The experiment can be described thus: Generation of reactive oxygen species by fMLP-activated neutrophils (luminol-enhanced chemiluminescence). It counts as cell-based. As to conditions: Neutrophil. The source says:
Neutrophil activation can be measured by quantitation of ROS generated in vitro. Measurement of ROS allows specific quantitation of a pro-inflammatory species and is also a general measure of neutrophil activation. The most sensitive method for measuring the production of ROS by neutrophils is luminol-enhanced chemiluminescence. […] The assay system used to evaluate the ability of compounds to inhibit ROS generation in neutrophils is indicative of anti-inflammatory activity that may be efficacious in disease states including but not limited to rheumatoid arthritis and inflammatory bowel disease.
Freshly isolated primary human neutrophils (5×10^6 cells/mL) were incubated with the required concentrations of compound or vehicle for 30 minutes at 37° C. in HBSS buffer (pH 7.4) containing Ca^2+. 100 nM wortmannin was used as a positive control. Aliquots of each sample were transferred to a microtitre plate to which luminol (1 μM); obtained from Sigma; Catalogue No. A8511 is added. Activation of the neutrophils was immediately initiated by addition of (1 μM) fMLP; obtained from Sigma, Catalogue No. F3506. Light output from each well was recorded for 30 minutes in a microplate luminometer. Total light output (integral of the time-course) was determined for each well. Inhibitory activities of test drugs against neutrophil ROS generation is expressed as percentage activity relative to a no drug control (100% activation or generation of ROS) containing 0.25% DMSO. Concentration of test compound required to inhibit the generation of ROS to 50% of control values (IC50's) were determined from concentration-response curves by non-linear regression analysis.

For experiment [4], the system named is IFN-gamma production in concanavalin A stimulated primary human CD4+ T-cells. The experiment can be described thus: IFN-gamma production (Th1 profile) in concanavalin A stimulated primary human CD4+ T-cells. As to conditions: T-cell, 10 μg/mL Concanavalin A, 48 hours, X marks this range, read-out: INF-GAMMA IC50 RANGE (μM) 0.2-2.0. It counts as cell-based.
Excerpt: as §1, §2, §3, §4, §5, §6, §7

[5] abbreviates: read-out: IL-10 IC50 RANGE (μM) 0.2-2.0.
Setting [6] is: ROS production, X marks this range, read-out: IC50 RANGE (μM) 1-10.
[7] abbreviates: read-out: IL-10 IC50 RANGE (μM) 2.0-20.
Setting [8] is: read-out: IC50 RANGE (μM) <1, ROS production, X marks this range.
Setting [9] is: read-out: IL-10 IC50 RANGE (μM) 0.02-0.2.

For the compound `COc1ccc([C@H]2CNC(=O)C(Cc3ccc(OCc4ccccc4)c(OC)c3)C2)cc1OC` (some centres unmarked) [Compound 54], in experiment [1], the “PDE4:HARBS” value is reported as greater than 1. In addition, the results for the IC50 in experiment [2] (setting [5]), in experiment [3] (setting [6]) and in experiment [4] were 0.2 to 2 µM, 1 to 10 µM and 0.2 to 2 µM, respectively.

As to `COc1cc(CC2C[C@@H](c3ccc(OC)c(OC)c3)CNC2=O)ccc1O` (some centres unmarked) [Compound 55], in experiment [1], the “PDE4:HARBS” value is on record as greater than 1. Moreover, the IC50 was in the range of 0.2 to 2 µM in experiment [2] (setting [5]), 1 to 10 µM in experiment [3] (setting [6]) and 0.2 to 2 µM in experiment [4].

With `COc1cc(CC2C[C@@H](c3ccc(OC)c(OC4CCCC4)c3)COC2=O)ccc1O` (some centres unmarked) [Compound 43], in experiment [1], the “ratio of IC50's for PDE4catalytic to PDE4HARBS” value was 1.04. Moreover, the “PDE4:HARBS” value in experiment [1] is greater than 1. The IC50 in experiment [2] (setting [7]) was 2 to 20 µM; in experiment [3] (setting [8]), less than 1 µM; in experiment [4] it was 0.2 to 2 µM.

On to `COc1cc(C[C@@H]2C[C@@H](c3ccc(OC)c(OC)c3)COC2=O)ccc1O` [Compound 30], for which the “PDE4:HARBS” value in experiment [1] was less than 1. In addition, the IC50 in experiment [2] (setting [7]) was 2 to 20 µM; in experiment [3] (setting [6]) it was 1 to 10 µM; in experiment [4], 0.2 to 2 µM.

Consider `COc1cc(CC2C[C@@H](c3ccc(OC)c(OC4CCCC4)c3)CNC2=O)ccc1O` (some centres unmarked) [Compound 62], for which the “PDE4:HARBS” value in experiment [1] is greater than 1. For the same compound, the IC50 in experiment [2] (setting [9]) was in the range of 0.02 to 0.2 µM; in experiment [3] (ROS production, X marks this range, read-out: IC50 RANGE (μM) 10-100), 10 to 100 µM; in experiment [4], 0.2 to 2 µM.

As to `COc1cc(C[C@@H]2CC(c3ccc(OC)c(OC)c3)COC2=O)ccc1O` (mixture of isomers) [Compound 12], the concentration for half-maximal inhibition (IC50) in experiment [3] (setting [8]) was less than 1 µM.

Consider `COc1ccc(C2CNC(=O)C2)cc1OC1CCCC1` (centres unmarked) [Rolipram, reference compound], for which the figures for the IC50 in experiment [2] (setting [9]) and in experiment [4] were 0.02 to 0.2 µM and 0.2 to 2 µM, respectively.

Take `COc1ccc([C@@H]2CCC(=O)OC2)cc1OC1CCCC1` [Compound 41]: the “PDE4:HARBS” value in experiment [1] was greater than 1. The IC50 in experiment [3] (setting [8]) was less than 1 µM.
